This is an account of results in patent US20240293459A1 (priority 2021, published 2024).

For this test, the system named is healthy donor PBMC (CD8+ T cells). It counts as cell-based, human. Conditions: of one 48 well plate; two rounds of stimulation with peptide-pulsed autologous DCs; HLA-matched healthy donor.
Regarding KLFAAETLK [NSP13-134], the “wells showing clear peptide tetramer positive CD8+ T cell population” value came to 11 wells.

On to TLVPQEHYV [NSP13-242], for which the “wells showing clear peptide tetramer positive CD8+ T cell population” value worked out at 48 wells.

With “VYIGDPAQL (listed as Homo Sapiens) [NSP13-400, NSP13 derived HLA-A2402 peptide]”, the “wells showing clear peptide tetramer positive CD8+ T cell population” value was found to be 9 wells.
